{"source": "patent EP3818828A1", "about": "(priority 2019, dated 2021)", "key": {"Exserohilum turcicum": {"tested_on": "Exserohilum turcicum", "assay": "Toxicity determination (EC50) on mycelial growth, growth rate method", "format": "cell-based", "conditions": "for EC50: median inhibition concentration", "procedure": "(§1) The inhibition of samples for testing on the mycelial growth of plant pathogenic fungi for testing is determined with a growth rate method. 3-(3',4'-methylenedioxy phenyl)-N-n-propyl acrylamide, 3-(3',4'-methylenedioxy phenyl)-piperidine acrylate and five control agents are dissolved with dimethyl sulfoxide (DMSO), then formulated at 5-7 concentrations of different gradients for test following the trial test results, with the same concentration of DMSO as the control solvent, each treatment in triplicate. Fungal cakes with a diameter of 4 mm are taken from the edge of the colony, inoculated into the center of a PDA plate containing different agents of different concentrations and the DMSO control, with one piece of fungal cake inoculated in each plate (with a diameter of […]), and incubated in a constant temperature incubator at a temperature of 22±1.5°C. 7 days later (10-20 days may be needed for some pathogenic fungi), the diameter of the colony is measured with a cross over method according to the mycelial growth profile of the control pathogenic fungi, then the inhibition rate of mycelial growth is calculated.\n(§2) 3-(3',4'-methylenedioxy phenyl)-piperidine acrylate, the control agents 96.5% of chlorothalonil technical and 97.0% of procymidone technical. Agents for testing and the control agents chlorothalonil and procymidone are treated at 5-8 concentrations of different gradients on the basis of preliminary tests to ensure that the inhibition rates for treatments at all the concentrations are between 10% and 90%.\n(§3) For specific determination methods, with reference to Embodiment 1. The concentration of active ingredients in the culture medium is used as the testing concentration to calculate the toxic regression equation (Y=bx+a) and the median inhibition concentration EC50, 95% confidence limit, and relative toxicity. Relative toxicity (compared to chlorothalonil) = EC50 of chlorothalonil / EC50 of 3-(3',4'-methylenedioxy phenyl)-piperidine acrylate, and relative toxicity (compared to procymidone) = EC50 of procymidone / EC50 of 3-(3',4'-methylenedioxy phenyl)-piperidine acrylate."}, "Botrytis cinerea": {"tested_on": "Botrytis cinerea", "assay": "Toxicity determination (EC50) on mycelial growth, growth rate method", "format": "cell-based", "procedure": "as §1, §2, §3"}, "Colletotrichum capsici": {"tested_on": "Colletotrichum capsici", "assay": "Toxicity determination (EC50) on mycelial growth, growth rate method", "format": "cell-based", "conditions": "for EC50: median inhibition concentration", "procedure": "as §1, §2, §3"}, "Valsa mali": {"tested_on": "Valsa mali", "assay": "Toxicity determination (EC50) on mycelial growth, growth rate method", "format": "cell-based", "conditions": "for EC50: median inhibition concentration", "procedure": "as §1, §2, §3"}, "Sclerotinia sclerotiorum": {"tested_on": "Sclerotinia sclerotiorum", "assay": "Toxicity determination (EC50) on mycelial growth, growth rate method", "format": "cell-based", "procedure": "as §1, §2, §3"}, "Phytophthora infestans": {"tested_on": "Phytophthora infestans", "assay": "microbe, parasite or virus in culture", "format": "cell-based", "conditions": "for EC50: median inhibition concentration"}, "L.taurica": {"tested_on": "L.taurica", "assay": "Field efficiency test, tomato powdery mildew", "format": "in vivo", "conditions": "solar greenhouse", "procedure": "The formulation of emulsifiable concentrate is the same as that in Embodiment 3.\nTomatoes (Variety: Song Tian Fen Yang Yang) were planted in a solar greenhouse. 14% of 3-(3',4'-methylenedioxy phenyl)-piperidine acrylate EC was diluted at four concentrations of 1.00, 0.80, 0.667 and 0.50 mg/mL (active ingredients); the control agent, 72% cream urea·manganese zinc WP was diluted at a concentration of 1.00 mg/mL (active ingredients); additionally clear water was used as the control. The first application was started before the onset of L.taurica. The instrument for application was a WS-18D knapsack electric sprayer, which employed a cone nozzle. Each agent was formulated into the desired concentrations according to the usage amount of the control clear water. Both sides of the tomato leaves were sprayed evenly. Thereafter, applications were conducted every 7 days consecutively for 4 times. 10 days after the fourth application, the number of sick leaves at each grade of powdery mildew was investigated following the grading standard of 9 grades, to calculate the disease index and the control effect."}, "Magnaporthe grisea": {"tested_on": "Magnaporthe grisea", "assay": "microbe, parasite or virus in culture", "format": "cell-based", "conditions": "for EC50: median inhibition concentration"}, "F. graminearum": {"tested_on": "F. graminearum", "assay": "microbe, parasite or virus in culture", "format": "cell-based", "conditions": "for EC50: median inhibition concentration"}, "cucumber powdery mildew": {"tested_on": "cucumber powdery mildew", "assay": "In-vivo greenhouse determination of systemic action (root-irrigation) on cucumber powdery mildew", "procedure": "5.61 g of 3-(3',4'-methylenedioxy phenyl)-piperidine acrylate was weighed and dissolved in 25 g of absolute ethyl alcohol, then 6 g of emulsifier 0203B was added, and mixed uniformly with stirring to get 14% of 3-(3',4'-methylenedioxy phenyl)-piperidine acrylate EC.\nCucumber (Variety: Tianjin Mici) was sown in big pots (with a diameter of 30 cm) in a greenhouse, remaining 3 plants for each pot after emergence. The first root-irrigation was started at the early onset of cucumber powdery mildew (first appearance of spots on the true leaves). 14% of 3-(3',4'-methylenedioxy phenyl)-piperidine acrylate EC was diluted at three concentrations of 1.00, 0.667 and 0.50 mg/mL (active ingredients), 500 mL liquor for each pot. The root-irrigations were conducted every 7 days consecutively for 3 times. 10 days after the third root-irrigation, the number of sick leaves at each grade of cucumber powdery mildew was investigated for the whole plant following the grading standard of 9 grades, to calculate the disease index and the control effect."}, "[1]": {"conditions": "EC50 of chlorothalonil / EC50 of agent"}, "[2]": {"conditions": "EC50 of procymidone / EC50 of agent"}, "[3]": {"conditions": "median inhibition concentration"}}, "note": "Read-outs that look alike come from different tables or passages of the source."}
{"compound": "O=C(/C=C/c1ccc2c(c1)OCO2)N1CCCCC1", "note": "[3-(3',4'-methylenedioxyphenyl)-piperidine acrylate]", "values": [{"measurement": "Relative Toxicity (Compared to Chlorothalonil)", "setting": "Exserohilum turcicum; [1]", "result": 3.21}, {"measurement": "Relative Toxicity (Compared to Procymidone)", "setting": "Exserohilum turcicum; [2]", "result": 0.82}, {"measurement": "EC50", "setting": "Exserohilum turcicum; listed as 66#", "result": 128.1, "unit": "µg/mL"}, {"measurement": "EC50", "setting": "Exserohilum turcicum; read-out: EC50", "result": 130, "unit": "µg/mL"}, {"measurement": "Relative Toxicity (Compared to Chlorothalonil)", "setting": "Botrytis cinerea; [1]", "result": 0.84}, {"measurement": "Relative Toxicity (Compared to Procymidone)", "setting": "Botrytis cinerea; [2]", "result": 0.37}, {"measurement": "EC50", "setting": "Botrytis cinerea; [3]", "result": 212, "unit": "µg/mL"}, {"measurement": "EC50", "setting": "Colletotrichum capsici; Colletotrichum truncatum, read-out: EC50", "result": 130, "unit": "µg/mL"}, {"measurement": "Relative Toxicity (Compared to Chlorothalonil)", "setting": "Colletotrichum capsici; [1]", "result": 3.23}, {"measurement": "Relative Toxicity (Compared to Procymidone)", "setting": "Colletotrichum capsici; [2]", "result": 4.13}, {"measurement": "EC50", "setting": "Colletotrichum capsici; listed as 66#", "result": 125.3, "unit": "µg/mL"}, {"measurement": "EC50", "setting": "Valsa mali; Cytospora mali, read-out: EC50", "result": 90, "unit": "µg/mL"}, {"measurement": "Relative Toxicity (Compared to Chlorothalonil)", "setting": "Valsa mali; [1]", "result": 4.68}, {"measurement": "Relative Toxicity (Compared to Procymidone)", "setting": "Valsa mali; [2]", "result": 4.78}, {"measurement": "EC50", "setting": "Valsa mali; listed as 66#", "result": 89.4, "unit": "µg/mL"}, {"measurement": "Relative Toxicity (Compared to Chlorothalonil)", "setting": "Sclerotinia sclerotiorum; [1]", "result": 0.28}, {"measurement": "Relative Toxicity (Compared to Procymidone)", "setting": "Sclerotinia sclerotiorum; [2]", "result": 0.31}, {"measurement": "EC50", "setting": "Sclerotinia sclerotiorum; [3]", "result": 227, "unit": "µg/mL"}, {"measurement": "Relative Toxicity (Compared to Chlorothalonil)", "setting": "Phytophthora infestans; [1]", "result": 1.23}, {"measurement": "Relative Toxicity (Compared to Procymidone)", "setting": "Phytophthora infestans; [2]", "result": 8.36}, {"measurement": "EC50", "setting": "Phytophthora infestans", "result": 90, "unit": "µg/mL"}, {"measurement": "EC50", "setting": "Phytophthora infestans; listed as 66#", "result": 93, "unit": "µg/mL"}, {"measurement": "Control Effect", "setting": "L.taurica; 0.50 mg/mL", "result": 81.68, "unit": "%"}, {"measurement": "Control Effect", "setting": "L.taurica; 0.667 mg/mL", "result": 88.19, "unit": "%"}, {"measurement": "Control Effect", "setting": "L.taurica; 0.80 mg/mL", "result": 90.36, "unit": "%"}, {"measurement": "Control Effect", "setting": "L.taurica; 1.00 mg/mL", "result": 97.85, "unit": "%"}, {"measurement": "Relative Toxicity (Compared to Chlorothalonil)", "setting": "Magnaporthe grisea; [1]", "result": 2.45}, {"measurement": "Relative Toxicity (Compared to Procymidone)", "setting": "Magnaporthe grisea; [2]", "result": 1.73}, {"measurement": "EC50", "setting": "Magnaporthe grisea; Pyricularia oryzae", "result": 180, "unit": "µg/mL"}, {"measurement": "EC50", "setting": "Magnaporthe grisea; listed as 66#", "result": 177.6, "unit": "µg/mL"}, {"measurement": "Relative Toxicity (Compared to Chlorothalonil)", "setting": "F. graminearum; [1]", "result": 1.82}, {"measurement": "Relative Toxicity (Compared to Procymidone)", "setting": "F. graminearum; [2]", "result": 6.83}, {"measurement": "EC50", "setting": "F. graminearum; Fusarium graminearum", "result": 120, "unit": "µg/mL"}, {"measurement": "EC50", "setting": "F. graminearum; listed as 66#", "result": 124.5, "unit": "µg/mL"}, {"measurement": "systemic activity", "setting": "cucumber powdery mildew; cucumber powdery mildew, uptake by roots and delivery upwards", "result": "no systemic activity"}, {"measurement": "effects of root-irrigations on cucumber powdery mildew", "setting": "cucumber powdery mildew; root-irrigations at 1.00, 0.667 and 0.50 mg/mL at the early onset", "result": "no effects"}]}
